This passage reports RP-LC retention time results from the METLIN SMRT retention time set (Domingo-Almenara et al. 2019).

The data set can be described thus: gradient 5% acetonitrile 3 min, to 50% in 2 min, to 85% in 15 min, held 3 min, 100 µL/min. The note with it: column: Zorbax Extend-C18 2.1 x 50 mm; eluents: water / acetonitrile, 0.1% formic acid. A digest of the protocol: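 Using water and acetonitrile that each contained 0.1% formic acid, mixtures of ~100 pure standards were separated at 100 μL/min on a Zorbax Extend-C18 column (2.1 × 50 mm, 1.8 μm). The HPLC fed a quadrupole time-of-flight mass spectrometer working in positive and negative ionization mode, with dead and dwell volumes of 40 μL and 900 μL. Data were acquired over 3 months. Retention time was read from computationally picked adduct peaks after manual inspection of each.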
Regarding `COc1ccc(C(=O)N2C[C@H](c3nc(-c4ccccc4)no3)[C@@H](C)C2)cc1`, the RP-LC retention time came out at 984 s.
`CCCc1nc(-c2cc3ccccc3nc2N2CCN(C)CC2)no1`: the RP-LC retention time was determined as 671 s.
For `CN(C)C(=O)CN1CCN(c2ccc(NC(=O)C(C)(C)C)c(C(=O)O)c2)CC1` the value was 595 s; for `CCCc1noc(C2CCCCN2CC(=O)Nc2ccc(F)c(Cl)c2)n1` (centres undefined), 1110 s.
As to `CC(=O)N1CCc2cc(N3CC(C(=O)NCc4ccccc4C(F)(F)F)CC3=O)ccc21` (centres undefined), the RP-LC retention time amounted to 748 s.
The figure for `CCOc1ccc(-c2nc(C#N)c(N3CCN(C(=O)c4ccccc4Cl)CC3)o2)cc1` is 986 s; for `CCn1cnc(S(=O)(=O)N2CCC(C(=O)N3CCN(c4ccc(F)cc4)CC3)CC2)c1` it is 762 s; for `Cc1cc(-c2nnc(NC(=O)CS(=O)(=O)c3ccc(Cl)cc3)o2)nn1C` it is 677 s.
`Cc1ccc(CC(=O)Nc2c(C(=O)N3CCN(c4ccccn4)CC3)oc3ccccc23)cc1` had an RP-LC retention time of 716 s.
`CCN1CCN(CCNC(=O)c2c(-c3ccc(Br)s3)noc2C)CC1` returned an RP-LC retention time of 618 s.
Molecule `Cc1cc(CN2CCc3nn(Cc4ccccc4)c(=O)n3CC2)n(C)n1` displayed an RP-LC retention time of 611 s.
For `O=C1COc2cc(S(=O)(=O)N3CCCC3C(=O)Nc3ccc4c(c3)OCCO4)c(Cl)cc2N1` (centres undefined), the RP-LC retention time is 734 s.
For `CC1(C)CC(=O)C2=C(C1)Nc1ccccc1N(CC(=O)NCc1cccnc1)C2c1ccco1` (centres undefined) the value was 614 s; for `COc1ccc(OC)c(S(=O)(=O)Nc2ccc(Br)cc2C)c1`, 945 s; for `Cc1nnsc1C(=O)N1CCC(CNC(=O)Cn2c(=O)oc3ccccc32)CC1`, 641 s.
`CCCCCn1c(=O)c2ccccc2n(Cc2nc(-c3ccc(F)c(Cl)c3)no2)c1=O` had an RP-LC retention time of 1290 s.
The molecule `COc1ccc(-c2nnc(Cc3nc(-c4ccc(F)cc4)no3)o2)cc1OC` showed an RP-LC retention time of 907 s.
The figure for `Cc1nc2ccccc2c(=O)n1-c1ccc(NC(=O)c2cnccn2)cc1` is 682 s.
On to `CCc1ccccc1S(=O)(=O)N1CCC(C(=O)NCc2csc(-c3cccs3)n2)CC1`, for which the RP-LC retention time turned out to be 950 s.
For the molecule `CC(C)n1nnc2cc(C(=O)N(C)CC(=O)Nc3ccc(F)c(Cl)c3)ccc21`, the RP-LC retention time is 790 s.
`COc1ccc(-c2noc(CN3C(=O)COc4cc(C)ccc43)n2)cc1` had an RP-LC retention time of 1030 s.
The figure for `CCc1nc2cc(N3CCC(C(=O)NCc4cccc(F)c4)CC3)cnc2nc1CC` is 840 s.
In turn, `CC(C)S(=O)(=O)c1ccc(CC(=O)N2CC(c3nc4ccccc4[nH]3)C2)cc1` had an RP-LC retention time of 562 s.
`Cn1nc(-c2nnc(-c3ccccc3F)o2)c2c1CCN(S(=O)(=O)c1ccc(F)c(Cl)c1)C2` had an RP-LC retention time of 990 s.
`CCN(CC)C(=O)COc1ccc(NC(=O)C2CC2)cn1` had an RP-LC retention time of 664 s.
Take `O=C(NCCCNC(=O)NC1CCCCC1)NC1CCCCC1`: the RP-LC retention time was 673 s.
The figure for `Cc1ccc(NC(=O)N2CCCC2c2nc(-c3ccccc3)no2)cc1C` (centres undefined) is 1030 s; for `O=C(Nc1cc(F)ccc1Cl)c1cnc(-c2ccccc2)nc1-c1ccncc1` it is 1000 s.
On to `O=C(c1ccc(Cl)c(Cl)c1)N1CCC2(CC1)OCCS2`, for which the RP-LC retention time is 890 s.
As to `CC(=O)N1CCC2(CC1)Oc1ccccc1C1CC(c3ccccc3)=NN12` (centres undefined), the RP-LC retention time worked out at 953 s.
`CCOC(=O)c1cnc2nc(C)ccc2c1Nc1ccc(F)c(F)c1` had an RP-LC retention time of 703 s.
As to `COCC(=O)N1CC2CN(S(=O)(=O)c3ccc(OC)cc3)CC(C1)O2`, the RP-LC retention time amounted to 934 s.
With `Cc1ccc(CN2CC(n3cc(COc4ccc(F)cc4)nn3)C2)s1`, the RP-LC retention time amounted to 684 s.
As to `Cn1cc(C(=O)NCCN2CCCCC2)c(S(=O)(=O)N2CCN(c3ccc(Cl)cc3)CC2)n1`, the RP-LC retention time stood at 728 s.
The figure for `Cc1ccc(NC(=O)N2CCC(CCNC(=O)C3(c4ccccc4)CC3)CC2)cc1F` is 928 s.
On to `Cc1c(C(=O)N2CCOCC2)cnn1-c1cc(-c2nc(C(C)C)no2)ccn1`, for which the RP-LC retention time was 840 s.
As for `Cc1nn(CC(=O)NCCN2CCOCC2)c(=O)c2nc(-c3ccccc3)sc12`, the RP-LC retention time came out at 610 s.
For `O=C([C@@H]1C[C@H](F)CN1S(=O)(=O)c1ccc(F)cc1F)N1CCc2ccccc2C1` the value was 906 s.
Molecule `COc1ccc(CNC(=O)NCC(c2ccccc2Cl)N(C)C)cc1` (centres undefined) yielded an RP-LC retention time of 577 s.
Molecule `CCNC(=O)c1nc(C(=O)NCc2cc(F)cc(F)c2)cs1` gave an RP-LC retention time of 781 s.
Turning to `O=C(COc1ccccc1)NCCSc1c[nH]c2ccccc12`, the RP-LC retention time stood at 831 s.
For `CCSc1nc2ccc(NS(=O)(=O)c3ccc(F)cc3F)cc2s1`, the RP-LC retention time worked out at 1020 s.
`CCOC(=O)c1sc(NC(=O)C(C)Oc2ccc(OC)cc2)nc1C` (centres undefined) gave an RP-LC retention time of 996 s.
Turning to `Cn1c(=O)n(CC(=O)N2CCCCCC2)c(=O)c2cnc(-c3ccc(Cl)cc3)nc21`, the RP-LC retention time was determined as 1120 s.
`O=C(CN1c2ccc(F)cc2-c2ccccc2S1(=O)=O)NCCc1ccccc1` registered an RP-LC retention time of 960 s.
The figure for `CCCCn1cc(S(=O)(=O)Nc2ccc(OC)cc2)c2cccnc21` is 896 s.
Take `CC(C)(C)NC(=O)N1CCC(CNC(=O)CSCc2ccccc2)CC1`: the RP-LC retention time came out at 735 s.
Molecule `CCN1C(=O)COc2ccc(-c3noc(-c4ccc(C#N)cc4)n3)cc21` registered an RP-LC retention time of 1050 s.
In turn, `Cc1ccc(-c2nc(-n3c(C)c4c(C)nnc(C)c4c3C)sc2C)cc1C` displayed an RP-LC retention time of 832 s.
`CC(C)N1CCc2c(sc(NC(=O)COc3ccc(Cl)cc3Cl)c2C(N)=O)C1` gave an RP-LC retention time of 598 s.
For `CC(C)Cc1ccc(S(=O)(=O)N(CCN2CCCCC2C)CC(=O)N2CCNCC2)cc1` (centres undefined) the value was 621 s; for `CC(=O)Nc1ccc(SCC(=O)Nc2ccc(OC(F)(F)F)cc2)nn1`, 745 s.
Consider `Cc1ccc(CNS(=O)(=O)c2ccc3c(c2)C(=O)N(C)c2ncccc2O3)cc1`, for which the RP-LC retention time came out at 932 s.
`CCc1cc(C2CCCN2C(=O)Cc2ccccc2F)on1` (centres undefined) came in with an RP-LC retention time of 777 s.
Molecule `COc1ccc(-n2c(=O)c3sccc3n(Cc3nc(-c4ccccc4OC)no3)c2=O)cc1` had an RP-LC retention time of 856 s.
On to `Cc1nc(C(=O)Nc2ccc(Cl)cc2F)c(C)o1`, for which the RP-LC retention time is 1020 s.
Turning to `CCCC(=O)n1nc(C)c(S(=O)(=O)N2CCOCC2)c1C`, the RP-LC retention time was found to be 954 s.
For `O=C(NCc1ccc(F)cc1)N1CCc2nc[nH]c2C1` the value was 574 s; for `COc1ccc(Cc2nc(-c3ccc4c(c3)nc(C)c(=O)n4C)no2)cc1OC`, 894 s.
In turn, `Cc1ccc(-c2cn3cc(C(=O)NC(C)c4cccnc4)ccc3n2)cc1C` (centres undefined) displayed an RP-LC retention time of 585 s.
The figure for `C=CCN1CC(c2nc3ccccc3n2Cc2c(F)cccc2Cl)CC1=O` (centres undefined) is 688 s; for `CCc1nc2cccnc2n1CCN1CCN(C(=O)Nc2ccc(Br)cc2)CC1` it is 631 s.
`CC(C)Cn1nc2n(c1=O)CCN(S(=O)(=O)c1ccccc1C(F)(F)F)CC2` returned an RP-LC retention time of 847 s.
Molecule `O=C(Nc1cccnc1)C1CCCN(S(=O)(=O)c2cc(-c3noc(C4CCCC4)n3)cs2)C1` (centres undefined) displayed an RP-LC retention time of 825 s.
Turning to `O=C(c1sc2ncccc2c1-n1cccc1)N1CCSCC1`, the RP-LC retention time was 842 s.
For `O=C(NCCC1=CCCCC1)C1CCCN(c2ccc3nncn3n2)C1` (centres undefined), the RP-LC retention time is 770 s.
`Cc1cccc(NC(=O)CN2C(=O)C3CCCCN3c3ccc(C(=O)N4CCCC4)cc32)c1` (centres undefined) gave an RP-LC retention time of 853 s.
With `O=S(=O)(c1cccc2c(I)cccc12)N1CCCNCC1`, the RP-LC retention time stood at 673 s.
Regarding `Cc1cc(=O)n(CC(=O)N2CCCc3ccccc32)c(N2CCCC2)n1`, the RP-LC retention time was found to be 665 s.
On to `Cc1ccc(NC(=O)Cn2cnc3nc(-c4cccnc4)ncc3c2=O)cc1F`, for which the RP-LC retention time was found to be 656 s.
With `CCN1CCN(CCCNC(=O)c2ccc3nc(C(C)C)oc3c2)CC1`, the RP-LC retention time is 667 s.
`Cc1cc(C)cc(-n2ccnc2SCC(=O)Nc2cc(C)on2)c1` registered an RP-LC retention time of 755 s.
Take `Clc1ccc(OCc2nn3c(-c4ccccn4)nnc3s2)cc1`: the RP-LC retention time amounted to 832 s.
`O=C(COc1ccc(C2=NN(C(=O)c3cccs3)C(c3ccccc3)C2)cc1)NCCO` (centres undefined): the RP-LC retention time is 695 s.
Molecule `Nc1ncnc2c1ncn2C1CCCO1` (centres undefined) registered an RP-LC retention time of 580 s.
For the molecule `CCCn1c(-c2cccc(C(=O)NCc3c(C)cc(C)cc3C)c2)nc2cccnc21`, the RP-LC retention time was 979 s.
For `O=S(=O)(c1ccc(-c2cc(C(F)(F)F)on2)o1)N1CCN(c2ncccn2)CC1` the value was 1060 s; for `COc1ccc(Cl)cc1NC(=O)CCc1c(-c2ccc(F)cc2)nc2ccccn12`, 724 s; for `CC(NC(=O)C1CCN(Cc2cn(C)c3ccc(Cl)cc23)CC1)c1ccccc1` (centres undefined), 727 s.
